Results from patent US20200345694A1, “ANTIAGING COMPOSITION COMPRISING CYTOCHALASIN D OR SAG, AND METHOD FOR SCREENING ANTIAGING SUBSTANCE” (AMOREPACIFIC CORPORATION, priority 2017, published 2020).

Key:
[1] = tested on: Normal human neonatal dermal fibroblasts; experiment: Expression of primary cilia in skin cells (immunofluorescence staining with ARL13B and acetylated tubulin antibodies, confocal microscope); type: cell-based; conditions: 48 hours, vs control group (FIG. 1)
Experimental: Normal human neonatal dermal fibroblasts were plated in a Lab-Tex™ 2-well glass chamber slide (Thermo Scientific, Waltham, Mass., USA) with 0.5×10^5 cells per well. 24 hours later, the cells were treated with a test substance (1.5 mL of 0.2 μM cytochalasin D, or 1.5 mL of 2 μM SAG). 48 hours, the cells were immobilized and primary cilia were stained.
The primary cilia were stained with ARL13B (Proteintech) and a-acetylated tubulin (Sigma-Aldrich) antibodies. The cells were incubated overnight at 4° C. with ARL13B antibody diluted to 1/500 based on weight and a-acetylated tubulin antibody diluted to 1/1000 based on weight in a PBS buffer supplemented with 0.1% Triton™ X-100 and 5% normal goat serum. Then, the cells were treated at room temperature for 2 hours with Alexa Fluor 594 goat anti-mouse IgG and 488 goat anti-rabbit IgG (Invitrogen) as secondary antibodies. The nuclei were stained with DAPI and observed under a confocal microscope. The experiment was repeated at least twice for independent test groups.

[2] = tested on: normal human dermal fibroblasts; experiment: Procollagen I secreted to the medium of fibroblasts, measured by western blotting; type: cell-based; conditions: 48 hours, vs control group (FIG. 2)
Experimental: It was investigated whether the increase in primary cilia leads to increased secretion of procollagen to the medium.
Specifically, normal human dermal fibroblasts were cultured in DMEM supplemented with 10% FBS (fetal bovine serum), 100 mg/L streptomycin and 100,000 U/L penicillin. The cultured fibroblasts seeded onto a 6-well plate with 1×10^5 cells per well and 1.5 mL of a medium containing 0.2 μM cytochalasin D or 2 pM SAG as a test substance was added 24 hours later. This leads to increased expression of primary cilia as in Test Example 1. 48 hours after the treatment with the test substance, the medium was collected and the amount of procollagen I in the medium was measured by western blotting. The procollagen I antibody was purchased from Developmental Studies Hybridoma Bank and diluted in a PBS buffer containing 0.1% Trito™ X-100 and 5% normal goat serum to 1/10000 based on weight. As a control group (loading control), electrophoresed polyacrylamide gel was stained with 0.05% Coomassie blue and then observed. The experiment was repeated at least twice for independent test groups.

Structure (SMILES) | primary cilia of fibroblasts ([1]; 2 μM SAG) | amount of procollagen in fibroblasts (procollagen I in the medium) ([2]; 2 pM SAG (so in the source)) | primary cilia of fibroblasts ([1]; 0.2 μM cytochalasin D) | amount of procollagen in fibroblasts (procollagen I in the medium) ([2]; 0.2 μM cytochalasin D)
CN[C@H]1CC[C@H](N(Cc2cccc(-c3ccncc3)c2)C(=O)c2sc3ccccc3c2Cl)CC1 [SAG, 3-chloro-N-[trans-4-(methylamino)cyclohexyl]-N-[[3-(4-pyridinyl)phenyl]methyl]benzo[b]thiophene-2-carboxamide] | increased | increased | – | –
C=C1C(O)[C@@H]2/C=C/C[C@H](C)C(=O)[C@](C)(O)/C=C/[C@H](OC(C)=O)[C@]23C(=O)N[C@@H](Cc2ccccc2)[C@@H]3[C@@H]1C (stereo partly shown) [cytochalasin D] | – | – | increased | increased
